Results reported in US12108761B2, “Mesostigmata mite control agent” (MEIJI SEIKA PHARMA CO., LTD., priority 2017, dated 2024).

Tests used:
Type in all cases: in vivo
[1] = tested on: red mites (Dermanyssus gallinae); assay: Test Example 4: controlling effect on red mites, Pasteur pipette treated with acetone solution; conditions: 24 hours after treatment, unfed adult red mites; for Ratio of dead and affected mites: 5000 ppm; for pest or weed control at 5000 ppm: Dermanyssus gallinae, read-out: Ratio of dead and affected mites
Text: The tip of a Pasteur pipette was sealed with Parafilm, and an acetone solution (liquid agent) of each of the samples shown in Table 5 below diluted to a predetermined concentration was poured into the pipette through an upper portion thereof. One minute later, the Parafilm at the tip was detached, and the liquid agent was discharged. After the pipette was air dried, absorbent cotton was inserted to an upper end of the pipette, and 20 unfed adult red mites (Dermanyssus gallinae) were released into the pipette. After the tip was sealed with Hemato-Seal, the pipette was stored in the dark in an incubator at a temperature of 25 to 28° C. and a humidity of 40 to 60%. […] Then, the ratio (%) of dead and affected mites was calculated according to the following formula. Acequinocyl and fluacrypyrim were used as control drugs. The ratio (%) of dead and affected mites={(the number of dead mites+the number of affected mites)/(the number of survived mites+the number of affected mites+the number of dead mites)}×100

[2] = tested on: red mites (Dermanyssus gallinae); assay: Test Example 1: controlling effect on red mites, Pasteur pipette treated with acetone solution; conditions: unfed adult red mites
Text: The tip of a Pasteur pipette was sealed with Parafilm, and an acetone solution (liquid agent) of each of the samples shown in Table 2 below diluted to a predetermined concentration was poured into the pipette through an upper portion thereof. One minute later, the Parafilm at the tip was detached, and the liquid agent was discharged. After the pipette was air dried, absorbent cotton was inserted to an upper end of the pipette, and 20 unfed adult red mites (Dermanyssus gallinae) were released into the pipette. After the tip was sealed with Hemato-Seal, the pipette was stored in the dark in an incubator at a temperature of 27 to 28° C. and a humidity of 50 to 60%. After 24, 48, and 72 hours had passed since the treatment, the mites were observed under a stereomicroscope to determine whether the mites were dead or alive and whether the mites were affected. Then, the ratio (%) of dead and affected mites was calculated according to the following formula. Spinosad, trichlorfon, and permethrin were used as control drugs. The ratio (%) of dead and affected mites={(the number of dead mites+the number of affected mites)/(the number of survived mites+the number of affected mites+the number of dead mites)}×100

[3] = tested on: northern fowl mites (Ornithonyssus sylviarum); assay: Test Example 3: controlling effect on northern fowl mites, Pasteur pipette treated with acetone solution; conditions: fed adult northern fowl mites
Text: The tip of a Pasteur pipette was sealed with Parafilm, and an acetone solution (liquid agent) of each of the samples shown in Table 4 below diluted to a predetermined concentration was poured into the pipette through an upper portion thereof. One minute later, the Parafilm at the tip was detached, and the liquid agent was discharged. After the pipette was air dried, absorbent cotton was inserted to an upper end of the pipette, and 10 fed adult northern fowl mites (Ornithonyssus sylviarum) were released into the pipette. After the tip was sealed with Hemato-Seal, the pipette was stored in the dark in an incubator at 25° C. and at a humidity of 80%. After 2 and 24 hours had passed since the treatment, the mites were observed under a stereomicroscope to determine whether the mites were dead or alive and whether the mites were affected. Then, the ratio (%) of dead and affected mites was calculated. The ratio (%) of dead and affected mites={(the number of dead mites+the number of affected mites)/(the number of survived mites+the number of affected mites+the number of dead mites)}×100

## CNC(=O)/C(=N/OC)c1ccccc1CO/N=C(C)/C(=N/OC)C(/C)=N/OC [Orysastrobin]
[1]
  Ratio of dead and affected mites: 82.6%

## CO/C=C(/C(=O)OC)c1ccccc1COc1cc(C(F)(F)F)nc(OC(C)C)n1 [Fluacrypyrim]
[1]
  pest or weed control at 5000 ppm: 19.3%

## Spinosad
[2]; 200 ppm, 24 hours later
  Ratio of dead and affected mites: 33%
[2]; 200 ppm, 48 hours later
  Ratio of dead and affected mites: 69%
[2]; 200 ppm, 72 hours later
  Ratio of dead and affected mites: 72%
[2]; 1000 ppm, 24 hours later
  Ratio of dead and affected mites: 32%
[2]; 1000 ppm, 48 hours later
  Ratio of dead and affected mites: 82%
[2]; 1000 ppm, 72 hours later
  Ratio of dead and affected mites: 95%
[3]; 50 ppm, 2 hours later
  Ratio of dead and affected mites: 18%
[3]; 50 ppm, 24 hours later
  Ratio of dead and affected mites: 80%
[3]; 200 ppm, 2 hours later
  Ratio of dead and affected mites: 3%
[3]; 200 ppm, 24 hours later
  Ratio of dead and affected mites: 94%

## CCCCCCCCCCCCC1=C(OC(C)=O)C(=O)c2ccccc2C1=O [Acequinocyl]
[1]
  pest or weed control at 5000 ppm: 93.3%

## Cc1c(Br)c2ccc(F)cc2n1S(=O)(=O)c1ncn(S(=O)(=O)N(C)C)n1 [Amisulbrom]
[1]
  Ratio of dead and affected mites: 92.9%

## O=[N+]([O-])c1cc(C(F)(F)F)c(Cl)c([N+](=O)[O-])c1Nc1ncc(C(F)(F)F)cc1Cl [Fluazinam]
[1]
  pest or weed control at 5000 ppm: 82.5%

## O=C(NCCc1ncc(C(F)(F)F)cc1Cl)c1ccccc1C(F)(F)F [Fluopyram]
[1]
  pest or weed control at 5000 ppm: 50.5%

## CC(=O)Oc1c(C)c(C)nc2c(C)cc(C(C)(C)C)cc12 [Compound B]
[2]; 100 ppm, 24 hours later
  Ratio of dead and affected mites: 100%
[2]; 100 ppm, 48 hours later
  Ratio of dead and affected mites: 100%

## Cc1ccc(-c2c(Cl)nc(C#N)n2S(=O)(=O)N(C)C)cc1 [Cyazofamid]
[1]
  pest or weed control at 5000 ppm: 23.2%

## COP(=O)(OC)C(O)C(Cl)(Cl)Cl (stereo not shown) [Trichlorfon]
[2]; 5000 ppm, 48 hours later
  Ratio of dead and affected mites: 84%

## CCC(Nc1ncnc(C)c1Cl)c1ccc(OC(F)F)cc1 (stereo not shown) [Diflumetorim]
[1]
  pest or weed control at 5000 ppm: 100%

## Cn1cc(C(=O)Nc2ccccc2-c2cc(F)c(F)c(F)c2)c(C(F)F)n1 [Fluxapyroxad]
[1]
  Ratio of dead and affected mites: 61.3%

## CC1=C(C(=O)Nc2ccccc2)SCCO1 [Carboxin]
[1]
  pest or weed control at 5000 ppm: 42.6%

## CO/C=C(/C(=O)OC)c1ccccc1Oc1cc(Oc2ccccc2C#N)ncn1 [Azoxystrobin]
[1]
  Ratio of dead and affected mites: 55.2%

## CC1(C)C(C=C(Cl)Cl)C1C(=O)OCc1cccc(Oc2ccccc2)c1 (stereo not shown) [Permethrin]
[2]; 100 ppm, 48 hours later
  Ratio of dead and affected mites: 6%

## CON=C(C(=O)OC)c1ccccc1CON=C(C)c1cccc(C(F)(F)F)c1 [Trifloxystrobin]
[1]
  pest or weed control at 5000 ppm: 75.7%

## CC1(C)C(C=C(Cl)c2ccc(Cl)cc2)C1C(=O)OC(C#N)c1ccc(F)c(Oc2ccccc2)c1 (stereo not shown) [Flumethrin]
[3]; 5 ppm, 24 hours later
  Ratio of dead and affected mites: 67%
[3]; 20 ppm, 24 hours later
  Ratio of dead and affected mites: 83%
[3]; 50 ppm, 2 hours later
  Ratio of dead and affected mites: 100%
[3]; 50 ppm, 24 hours later
  Ratio of dead and affected mites: 100%

## Cc1nn(C)c(Oc2ccccc2)c1C=NOCc1ccc(C(=O)OC(C)(C)C)cc1 [Fenpyroximate]
[1]
  pest or weed control at 5000 ppm: 100%

## COC(=O)Oc1c(C)c(C)nc2ccc(F)cc12 [Compound F]
[2]; 50 ppm, 24 hours later
  Ratio of dead and affected mites: 55%

## CO/N=C(/C1=NOCCO1)c1ccccc1Oc1ncnc(Oc2ccccc2Cl)c1F [Fluoxastrobin]
[1]
  pest or weed control at 5000 ppm: 66.5%

## COC(=O)N(OC)c1ccccc1COc1ccn(-c2ccc(Cl)cc2)n1 [Pyraclostrobin]
[1]
  pest or weed control at 5000 ppm: 77.3%

## C/C(=N/Nc1nc(C)cc(C)n1)c1ccccc1C [Ferimzone]
[1]
  pest or weed control at 5000 ppm: 53.5%

## CC(C)Oc1cccc(NC(=O)c2ccccc2C(F)(F)F)c1 [Flutolanil]
[1]
  pest or weed control at 5000 ppm: 39.5%

## CO/C=C(/C(=O)OC)c1ccccc1COc1cccc(C(F)(F)F)n1 [Picoxystrobin]
[1]
  Ratio of dead and affected mites: 80.5%

## O=C(Nc1ccccc1-c1ccc(Cl)cc1)c1cccnc1Cl [Boscalid]
[1]
  pest or weed control at 5000 ppm: 44.5%

## COC(=O)NCc1cc(/C(C)=N/OCc2cccc(C)n2)ccc1Cl [Pyribencarb]
[1]
  pest or weed control at 5000 ppm: 31.1%

## CC(C)CC(C)c1sccc1NC(=O)c1cn(C)nc1C(F)(F)F (stereo not shown) [Penthiopyrad]
[1]
  pest or weed control at 5000 ppm: 35%

## Cc1cc(OC(C)C)ccc1C(=O)C(C)(C)NC(=O)c1sccc1C [Isofetamid]
[1]
  Ratio of dead and affected mites: 17.4%

## CC(=O)Oc1c(C)c(C)nc2c(C)cc(Br)cc12 [Compound C]
[2]; 100 ppm, 24 hours later
  Ratio of dead and affected mites: 91%
[2]; 100 ppm, 48 hours later
  Ratio of dead and affected mites: 95%

## C[C@@]1(c2ccc(Oc3ccccc3)cc2)OC(=O)N(Nc2ccccc2)C1=O (racemic) [Famoxadone]
[1]
  pest or weed control at 5000 ppm: 81.7%

## CNC(=O)/C(=N/OC)c1ccccc1Oc1ccccc1 [Metominostrobin]
[1]
  pest or weed control at 5000 ppm: 50%

## CC(=O)Oc1c(C)c(C)nc2c(F)cc(C(C)(C)C)cc12 [Compound A]
[2]; 200 ppm, 24 hours later
  Ratio of dead and affected mites: 7%
[2]; 200 ppm, 48 hours later
  Ratio of dead and affected mites: 81%
[2]; 200 ppm, 72 hours later
  Ratio of dead and affected mites: 98%
[2]; 1000 ppm, 24 hours later
  Ratio of dead and affected mites: 100%
[2]; 1000 ppm, 48 hours later
  Ratio of dead and affected mites: 100%
[2]; 1000 ppm, 72 hours later
  Ratio of dead and affected mites: 100%
[3]; 50 ppm, 2 hours later
  Ratio of dead and affected mites: 13%
[3]; 50 ppm, 24 hours later
  Ratio of dead and affected mites: 92%
[3]; 200 ppm, 2 hours later
  Ratio of dead and affected mites: 53%
[3]; 200 ppm, 24 hours later
  Ratio of dead and affected mites: 100%
[3]; 1000 ppm, 2 hours later
  Ratio of dead and affected mites: 100%
[3]; 1000 ppm, 24 hours later
  Ratio of dead and affected mites: 100%

## Cc1nn(C)c(F)c1C(=O)Nc1ccccc1C(C)CC(C)C (stereo not shown) [Penflufen]
[1]
  Ratio of dead and affected mites: 20.5%

## Cc1ccccc1C(=O)Nc1cccc(OC(C)C)c1 [Mepronil]
[1]
  pest or weed control at 5000 ppm: 52.1%

## Cc1nc(C(F)(F)F)c(C(=O)Nc2c(Br)cc(OC(F)(F)F)cc2Br)s1 [Thifluzamide]
[1]
  pest or weed control at 5000 ppm: 63.2%

## CC(=O)Oc1c(C)c(C)nc2c(C)cc(F)cc12 [Compound D]
[2]; 100 ppm, 24 hours later
  Ratio of dead and affected mites: 100%
[2]; 100 ppm, 48 hours later
  Ratio of dead and affected mites: 100%

## CO/N=C(/C(=O)OC)c1ccccc1COc1ccccc1C [Kresoxim-Methyl]
[1]
  pest or weed control at 5000 ppm: 52.8%

## Cc1nn(C)c(Cl)c1C(=O)Nc1cccc2c1C(C)OC2(C)C (stereo not shown) [Furametpyr]
[1]
  Ratio of dead and affected mites: 56.1%
